Test results from patent publication US20220031708A1, “METHOD FOR TREATING IDIOPATHIC PULMONARY FIBROSIS” (NuMedii, Inc., priority 2019, published 2022).
Where two headings read alike, the source gives them in different places.

Columns and labels:
[1] = tested on: Primary fibroblasts cultured from the lungs of healthy donors; test: Fibroblast-to-myofibroblast transition (FMT), aSMA induction by TGFb, healthy donor fibroblasts; assay type: cell-based, human; conditions: 1.25 ng/mL TGFb; for IC50: Homo sapiens, Fibroblast, 72 h, read-out: LogM IC50 aSMA (converted); for LogM IC50 aSMA: 72 hours
Description: (§1) Primary fibroblasts cultured from the lungs of patients with IPF (n=3) or healthy donors (n=3) were exposed to Chk1 inhibitors or control compounds to determine the effect of Chk1 inhibitors on fibroblast differentiation into myofibroblasts (i.e., fibroblast-to-myofibroblast transition [FMT]). […] Chk1 inhibitors were dosed in an 8-point concentration curve 1 hr prior to TGFb treatment. Alpha-SMA and DAPI staining were assessed after 72 hours using high content analysis. The ability of the Chk1 inhibitors to block fibroblast-to-myofibroblast differentiation was determined by quantifying percent inhibition (PIN) of aSMA induction. Cell viability was also measured to determine whether the compounds were cytotoxic.

[2] = tested on: lung fibroblasts isolated from human IPF donor lungs; test: Fibroblast-to-myofibroblast transition (FMT), aSMA induction by TGFb, IPF donor fibroblasts; assay type: cell-based; conditions: 1.25 ng/mL TGFb; for IC50: Homo sapiens, Fibroblast, 72 h, read-out: LogM IC50 aSMA (converted); for LogM IC50 aSMA: 72 hours
Description: as §1

[3] = tested on: mouse model of pulmonary fibrosis; test: Bleomycin mouse model of pulmonary fibrosis: histopathology and collagen deposition; assay type: in vivo, C57BL6 mice; conditions: for Collagen deposition (% pixel count) / Fiber Alignment / Fiber Count / Fiber Density: relative vs vehicle; for disease burden by collagen deposition, fiber count, fiber density and fiber alignment (Sirius red): FIG. 4A, FIG. 4B, Table 8; for histopathology scores (Ashcroft, Masson's Trichrome): PF-477736 10 or 20 mg/kg i.p., nintedanib 100 mg/kg orally, FIG. 3A
Description: To induce fibrosis, 6-8 week old C57BL6 mice were dosed with 3 mg/kg bleomycin hydrochloride in a volume of 50 μL per animal via intratracheal (i.t.) administration with a microsprayer. One week following administration of bleomycin, mice were treated with compound or vehicle once daily from day 7 to day 20. PF-477736 was administered at a dose of either 10 mg/kg (“med”) or 20 mg/kg (“high”) i.p. in a vehicle of […] sodium acetate buffer and 4% dextrose, pH 4. Nintedanib was administered orally at 100 mg/kg in a vehicle of 1% methylcellulose. n=10 mice per group.
At the end of the study, lungs were processed using standard histological methods for Masson's Trichrome staining and were assigned Ashcroft scores by a blinded pathologist.
Whole lung imaging was performed using a modified deep learning algorithm to calculate an average histogram (FIG. 3B) and empirical cumulative density function (ECDF, FIG. 3C) for each arm. The X axes represent severity of pathology, and the Y axes represent frequency (histograms) or cumulative frequency (ECDF).
Histological sections were also stained using Sirius red and assessed for collagen deposition (%), collagen fiber count, collagen fiber density, and collagen fiber alignment in a protocol modified from Bredfeldt et al. 2014, “Computational segmentation of collagen fibers from second-harmonic generation images of breast cancer.” Journal of biomedical optics 19.1.

[4] = tested on: Human lung fibroblasts from three donors; test: FMT assay, Chk1 inhibitor combined with nintedanib or pirfenidone; assay type: cell-based; conditions: nintedanib concentration curve, Chk1 inhibitor at pre-determined IC20; FIG. 7
Description: Human lung fibroblasts from three donors were seeded in 96-well plates and treated with 1.25 ng/mL TGFb to induce differentiation to a myofibroblast phenotype (characterized by the induction of alpha smooth muscle actin—aSMA). A Chk1 inhibitor PF-477736, or standard-of-care compounds in IPF (nintedanib or pirfenidone) were dosed as indicated in an 8-point concentration curve 1 hr prior to TGFb treatment. Alpha-SMA and DAPI staining were assessed after 72 hours using high content analysis for percent inhibition of aSMA induction and % viable cells. CRC=concentration response curve. The first noted compound was dosed in an 8-point concentration curve, while the second noted compound was dosed at the pre-determined IC20 in this assay.
For each condition, percent inhibition (PIN) of aSMA induction was calculated (circles, and left y-axis), and the percent of viable cells was calculated (triangles, right y-axis).

[5] = tested on: macrophages exposed to LPS and IFNg; test: Luminex-based assay of cytokines and MMPs in macrophage supernatants; assay type: cell-based, human; conditions: FIG. 2C
Description: (§2) Human monocytes were isolated from the peripheral blood of IPF patients, exposed to various doses of PF-477736 for 1 hour, and then differentiated into M1 macrophages by exposure to LPS/IFNg, or into M2 macrophages by exposure to IL-4, for 3 days. The cells were analyzed by flow cytometry for CD80 cell surface expression as marker of M1 differentiation, and for CD163 cell surface expression as marker of M2 differentiation. In addition, cell supernatants were tested in a Luminex-based assay for various cytokines and matrix metalloproteinases (MMPs).

[6] = tested on: M1 macrophages differentiated from human monocytes; test: M1 macrophage activation, CD80 flow cytometry after LPS/IFNg; assay type: cell-based; conditions: dosed 1 hour before LPS/IFNg, 3 days; FIG. 2A
Description: as §2

[7] = tested on: M2 macrophages differentiated from human monocytes; test: M2 macrophage activation, CD163 flow cytometry after IL-4; assay type: cell-based; conditions: dosed 1 hour before IL-4, 3 days; FIG. 2B
Description: as §2

[8] = donor FB0303*, Healthy (aberrant response to nintedanib)
[9] = 100 mg/kg orally once daily day 7 to day 20
[10] = 20 mg/kg i.p. once daily day 7 to day 20
[11] = Multi-dose: mice from both the 10 mg/kg and the 20 mg/kg groups

Cn1cc(-c2cnn3c(N)c(Br)c([C@@H]4CCCNC4)nc23)cn1 [MK-8776]
IC50 [1, 8]: 398 nM | IC50 ([1]; donor FB2382, Healthy): 3160 nM | IC50 ([2]; donor IPF06, IPF): 2000 nM | IC50 ([2]; donor IPF07, IPF): 2000 nM | IC50 ([2]; donor IPF08, IPF): 1580 nM

COc1cc2nc(-c3cc(F)ccc3O)nc(N[C@@H]3CNC[C@H]3C(C)(C)O)c2cc1OC [CCT-241533]
IC50 ([1]; donor FB0054, Healthy): 398 nM | IC50 ([1]; donor FB2382, Healthy): 501 nM | IC50 ([2]; donor IPF06, IPF): 631 nM | IC50 ([2]; donor IPF07, IPF): 158 nM | IC50 ([2]; donor IPF08, IPF): 316 nM

COC(=O)c1ccc2c(c1)NC(=O)/C2=C(\Nc1ccc(N(C)C(=O)CN2CCN(C)CC2)cc1)c1ccccc1 [Nintedanib]
Collagen deposition (% pixel count) [3, 9]: +0.31 % pixel count | Fiber Alignment [3, 9]: −0.03 | Fiber Count [3, 9]: +20 | Fiber Density [3, 9]: +0.40 | disease burden by collagen deposition, fiber count, fiber density and fiber alignment (Sirius red) [3]: did not | histopathology scores (Ashcroft, Masson's Trichrome) [3]: improved histopathology scores | concentration of nintedanib required for 50% inhibition of fibroblast to myofibroblast differentiation [4]: lower when co-administered with a Chk1 inhibitor

NC(=O)Nc1cc(-c2cccc(F)c2)sc1C(=O)N[C@H]1CCCNC1 [AZD-7762]
IC50 ([1]; donor FB0054, Healthy): 1260 nM | IC50 ([1]; donor FB2382, Healthy): 631 nM | IC50 ([2]; donor IPF06, IPF): 794 nM | IC50 ([2]; donor IPF07, IPF): 794 nM | IC50 ([2]; donor IPF08, IPF): 501 nM

COc1cccc(OCCCN)c1-c1cc(Nc2cnc(C#N)cn2)n[nH]1 [prexasertib]
IC50 ([1]; donor FB0054, Healthy): 631 nM | IC50 ([1]; donor FB2382, Healthy): 794 nM | IC50 ([2]; donor IPF06, IPF): 1000 nM | IC50 ([2]; donor IPF07, IPF): 1000 nM | IC50 ([2]; donor IPF08, IPF): 631 nM

N[C@@H]1CCCN(c2c(Br)cnc3[nH]cc(NC(=O)C4CC4)c23)C1 [GDC-0575]
LogM IC50 aSMA ([1]; donor FB0054, Healthy): −5.9 LogM | LogM IC50 aSMA [1, 8]: −5.8 LogM | LogM IC50 aSMA ([1]; donor FB2382, Healthy): −5.9 LogM | LogM IC50 aSMA ([2]; donor IPF06, IPF): −5.7 LogM | LogM IC50 aSMA ([2]; donor IPF07, IPF): −5.7 LogM | LogM IC50 aSMA ([2]; donor IPF08, IPF): −5.8 LogM

PF-477736
levels of representative cytokines and matrix metalloproteinases in supernatants [5]: lower levels of representative cytokines and matrix metalloproteinases | M1 macrophage activation (CD80 cell surface expression) [6]: inhibits M1 macrophage activation in a dose-dependent manner | Collagen deposition (% pixel count) ([3]; 10 mg/kg i.p. once daily day 7 to day 20): −1.27 % pixel count | Collagen deposition (% pixel count) [3, 10]: −1.64 % pixel count | Fiber Alignment [3, 10]: 0.08 | Fiber Count [3, 10]: −66.3 | Fiber Density [3, 10]: −0.66 | disease burden by collagen deposition, fiber count, fiber density and fiber alignment (Sirius red) [3]: reduced disease burden by all of these parameters in a dose-dependent manner | Collagen deposition (% pixel count) [3, 11]: −1.63 % pixel count | Fiber Alignment [3, 11]: 0.08 | Fiber Count [3, 11]: −67.7 | Fiber Density [3, 11]: −0.69 | histopathology scores (Ashcroft, Masson's Trichrome) [3]: improved histopathology scores | pathology severity, whole lung imaging (histogram, ECDF) ([3]; deep learning algorithm, FIG. 3B, 3C): greater reduction in pathology severity compared to nintedanib | M2 macrophage activation (CD163 cell surface expression) [7]: inhibits M2 macrophage activation in a dose-dependent manner

N#Cc1cnc(Nc2cc(NC[C@H]3CNCCO3)c(C(F)(F)F)cn2)cn1 [CCT-245737]
IC50 ([1]; donor FB0054, Healthy): 3160 nM | IC50 [1, 8]: 2510 nM | IC50 ([1]; donor FB2382, Healthy): 3160 nM | IC50 ([2]; donor IPF06, IPF): 3160 nM | IC50 ([2]; donor IPF07, IPF): 3160 nM | IC50 ([2]; donor IPF08, IPF): 3160 nM
